The values below come from ChEMBL document CHEMBL1201862, “PubChem BioAssay data set” (2004).

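Exposure lasted 48 hours, with cells grown in 96-well plates and compounds tested at five concentrations. Here, GI50 denotes the concentration required for 50% inhibition of growth.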 Activity calls are given as the source filed them. Cut-off read from the data, not from the text of the source: active = GI50 up to about 1.1 µM and inactive = higher.

Among the test systems are HCC 2998; OVCAR-4; SR; BT-549; NCI-H522; HL-60; SK-MEL-28; SK-MEL-2; MDA-N; TK-10; NCI-H23; T47D; SK-OV-3; U-251; EKVX; CCRF-CEM; HCT-15; MDA-MB-435; MOLT-4; SF-539.
Common to all, as to test: NCI tumour cell line growth inhibition, 48 h

Turning to `COc1ccc(CSCc2cc(OC)c(OC)c(OC)c2)cc1`, the GI50 is > 31.6 µM (inactive) in the assay with HCC 2998; > 100 µM (inactive) in the assay on OVCAR-4; > 100 µM (inactive) with SR; > 84.5 µM (inactive) in the assay with BT-549; > 100 µM (inactive) in the assay on NCI-H522; 5.92 µM (inactive) in the assay on HL-60. The GI50 is > 100 µM (inactive) in the assay on SK-MEL-28; > 100 µM (inactive) in the assay with SK-MEL-2; 7.26 µM (inactive) in the assay with MDA-N; > 100 µM (inactive) with TK-10; > 76 µM (inactive) in the assay on NCI-H23; 8 µM (inactive) with T47D. In addition, the GI50 in the assay on SK-OV-3 was > 100 µM (inactive); with U-251, > 100 µM (inactive); in the assay with EKVX it was > 31.6 µM (inactive); with CCRF-CEM, > 100 µM (inactive); in the assay on HCT-15, greater than 45.3 µM; in the assay with MDA-MB-435 it was 4.43 µM (inactive). Further, the GI50 in the assay with MOLT-4 was > 48.5 µM (inactive); with SF-539 it was > 71.9 µM (inactive).

Regarding `CN(C)CCOC1(CC2CCCCC2)CCC(C(C)(C)C)CC1` (configuration not stated), the GI50 with HCC 2998 is 4.38 µM (inactive); in the assay with OVCAR-4, 6.61 µM (inactive); with SR it was 1.69 µM (inactive); in the assay on BT-549, 6.19 µM (inactive); with NCI-H522 it was 1.56 µM (inactive); in the assay on HL-60 it was 2.54 µM (inactive). The GI50 is 4.68 µM (inactive) in the assay on SK-MEL-28; 6.44 µM (inactive) in the assay on SK-MEL-2; 4.25 µM (inactive) in the assay on MDA-N; 12.8 µM (inactive) with TK-10; 8.43 µM (inactive) in the assay with NCI-H23; 3.34 µM (inactive) in the assay on T47D. The GI50 in the assay with SK-OV-3 is 11.6 µM (inactive); in the assay with U-251 it was 4.74 µM (inactive); with EKVX, 8.07 µM (inactive); in the assay on CCRF-CEM, 2 µM (inactive); with HCT-15, 3.75 µM; in the assay with MDA-MB-435 it was 4.74 µM (inactive). The GI50 in the assay on MOLT-4 was 2.49 µM (inactive); with SF-539, 4.61 µM (inactive).

With `C=C1CC2(C)CCC(OC(=O)C3(C)OC3C)C(C)(OC(C)=O)C2CC1=C(C)C` (configuration not stated), the GI50 in the assay on HCC 2998 is > 100 µM (inactive); with OVCAR-4 it was > 100 µM (inactive); in the assay with SR, > 100 µM (inactive); in the assay with BT-549, > 100 µM (inactive); in the assay with NCI-H522 it was > 100 µM (inactive); in the assay on HL-60, 24.9 µM (inactive). Further, the GI50 in the assay on SK-MEL-28, in the assay with SK-MEL-2, in the assay on MDA-N, in the assay on TK-10, with NCI-H23 and with T47D was > 100 µM (inactive) throughout. In addition, the GI50 was > 100 µM (inactive) in the assay with SK-OV-3; > 100 µM (inactive) in the assay on U-251; > 100 µM (inactive) in the assay with EKVX; 96.6 µM (inactive) in the assay on CCRF-CEM; greater than 100 µM in the assay on HCT-15; > 100 µM (inactive) in the assay on MDA-MB-435. The GI50 with MOLT-4 and in the assay with SF-539 was > 100 µM (inactive) in each case.

As for `Cc1coc2c1CC1(C)C(CCC(O)C1C)C2` (configuration not stated), the GI50 in the assay on HCC 2998, in the assay on OVCAR-4, in the assay on SR, with BT-549, with NCI-H522 and in the assay with HL-60 was > 100 µM (inactive) throughout. For the same molecule, the GI50 with SK-MEL-2, with MDA-N, in the assay with TK-10, in the assay with NCI-H23, in the assay with T47D and with SK-OV-3 was > 100 µM (inactive) in each case. For the same molecule, the GI50 in the assay on U-251 was > 100 µM (inactive); in the assay on EKVX, > 100 µM (inactive); with CCRF-CEM, > 100 µM (inactive); in the assay with HCT-15 it was greater than 100 µM; in the assay on MDA-MB-435 it was > 100 µM (inactive); with MOLT-4, > 100 µM (inactive). Further, the GI50 in the assay on SF-539 was > 100 µM (inactive).

On to `C/C=C(\C)C(=O)OC1CC(OC(C)=O)C2(C(=O)OC)COC3C2C1(C)C1C2(C(=O)OC)OCC1(C3O)C1(O)C3CC(C4(O)C=COC4O3)C1(C)O2` (configuration not stated), for which the GI50 in the assay on HCC 2998 is 62.5 µM (inactive); with OVCAR-4, > 100 µM (inactive); in the assay on SR it was > 100 µM (inactive); with BT-549, > 100 µM (inactive); with NCI-H522, > 100 µM (inactive); in the assay on HL-60 it was 92 µM (inactive). For the same molecule, the GI50 in the assay on SK-MEL-28 was > 100 µM (inactive); with SK-MEL-2, > 100 µM (inactive); in the assay on MDA-N, 34.4 µM (inactive); in the assay with TK-10 it was > 100 µM (inactive); in the assay on NCI-H23, > 100 µM (inactive); in the assay on T47D it was > 100 µM (inactive). Moreover, the GI50 in the assay with SK-OV-3 is > 100 µM (inactive); with U-251 it was > 100 µM (inactive); in the assay with EKVX, > 100 µM (inactive); in the assay with HCT-15, greater than 100 µM; in the assay on MDA-MB-435 it was 40.8 µM (inactive); in the assay with MOLT-4, > 100 µM (inactive). For the same molecule, the GI50 in the assay with SF-539 is > 100 µM (inactive).

With `OCC1CCCC1O` (configuration not stated), the GI50 in the assay on HCC 2998, with OVCAR-4, with SR, in the assay on BT-549, with NCI-H522 and in the assay on HL-60 was > 100 µM (inactive) in each case. The GI50 in the assay with SK-MEL-28, in the assay with SK-MEL-2, with MDA-N, in the assay with TK-10, in the assay with NCI-H23 and in the assay with T47D was > 100 µM (inactive) each time. Besides, the GI50 in the assay with U-251 was > 100 µM (inactive); in the assay on CCRF-CEM, > 100 µM (inactive); in the assay on HCT-15, greater than 100 µM; in the assay with MDA-MB-435, > 100 µM (inactive); in the assay with MOLT-4, > 100 µM (inactive); in the assay with SF-539, > 100 µM (inactive).

For `COC(=O)c1ccc(CCC2=CC(=O)C=CC2=O)cc1`, the GI50 is 16.7 µM (inactive) in the assay with HCC 2998; 17.7 µM (inactive) in the assay on OVCAR-4; 2.49 µM (inactive) in the assay with SR; 12 µM (inactive) with BT-549; 1.62 µM (inactive) with NCI-H522; 0.728 µM (active) in the assay with HL-60. For the same molecule, the GI50 in the assay with SK-MEL-28 was 9.42 µM (inactive); in the assay with SK-MEL-2 it was 16.4 µM (inactive); in the assay with MDA-N, 12.5 µM (inactive); in the assay on TK-10 it was 19 µM (inactive); in the assay on NCI-H23, 17.9 µM (inactive); with T47D it was 2.94 µM (inactive). For the same molecule, the GI50 in the assay with U-251 was 11.2 µM (inactive); in the assay on EKVX it was 16 µM (inactive); with CCRF-CEM it was 0.603 µM (active); in the assay on HCT-15, 5.52 µM; with MDA-MB-435 it was 11.7 µM (inactive); in the assay on MOLT-4, 1.63 µM (inactive). Besides, in the assay on SF-539, the GI50 was 11.5 µM (inactive).

For the molecule `C=CCSC1=N/C(=C\c2ccc(Cl)cc2)C(=O)N1CC=C`, the GI50 in the assay with HCC 2998 was 34.8 µM (inactive); with OVCAR-4, 21.5 µM (inactive); in the assay with SR it was 27.4 µM (inactive); in the assay on BT-549, 23.5 µM (inactive); with NCI-H522, 23 µM (inactive); in the assay with HL-60, 9.35 µM (inactive). Besides, the GI50 in the assay with SK-MEL-28 is 50.2 µM (inactive); in the assay on SK-MEL-2 it was 27.7 µM (inactive); in the assay with MDA-N, 32.7 µM (inactive); in the assay with TK-10, 55.7 µM (inactive); in the assay with NCI-H23, 24.6 µM (inactive); in the assay with T47D it was 23.4 µM (inactive). Also, the GI50 was 42.8 µM (inactive) in the assay on SK-OV-3; 22 µM (inactive) in the assay on U-251; 17.1 µM (inactive) in the assay with EKVX; 21.4 µM (inactive) in the assay with CCRF-CEM; 28.2 µM in the assay with HCT-15; 28.8 µM (inactive) with MDA-MB-435. Also, in the assay on SF-539, the GI50 is 28.8 µM (inactive).

On to `O=C1NC(O)CCN1C1CC(O)C(CO)O1` (configuration not stated), for which the GI50 in the assay on HCC 2998, with SR, in the assay with BT-549, with NCI-H522, in the assay on HL-60 and in the assay on SK-MEL-28 was > 100 µM (inactive) throughout. In addition, the GI50 with SK-MEL-2, with MDA-N, in the assay on TK-10, with NCI-H23, in the assay on T47D and with SK-OV-3 was > 100 µM (inactive) throughout. In addition, the GI50 was > 100 µM (inactive) in the assay on U-251; > 100 µM (inactive) with EKVX; > 100 µM (inactive) in the assay on CCRF-CEM; greater than 100 µM with HCT-15; > 100 µM (inactive) in the assay with MDA-MB-435; > 100 µM (inactive) with MOLT-4. In addition, in the assay with SF-539, the GI50 was > 100 µM (inactive).

For `Cc1nnc(N)nc1/C=C\c1ccc(Cl)cc1Cl`, the GI50 in the assay on HCC 2998 is 21.6 µM (inactive); in the assay on OVCAR-4, 34.5 µM (inactive); in the assay with SR it was 46.6 µM (inactive); in the assay on BT-549, 72.3 µM (inactive); with NCI-H522 it was 24.2 µM (inactive); with HL-60, 27 µM (inactive). Besides, the GI50 is 55.5 µM (inactive) in the assay on SK-MEL-28; 17 µM (inactive) in the assay with SK-MEL-2; 55.5 µM (inactive) in the assay with MDA-N; > 100 µM (inactive) in the assay with TK-10; 33.7 µM (inactive) with NCI-H23; 55.3 µM (inactive) with T47D. The GI50 in the assay with SK-OV-3 is 45.5 µM (inactive); with U-251, 34.8 µM (inactive); in the assay with EKVX, 39.5 µM (inactive); in the assay with CCRF-CEM it was 27.5 µM (inactive); with HCT-15, 23.3 µM; with MDA-MB-435, 33.5 µM (inactive). In addition, in the assay with MOLT-4, the GI50 was 41.4 µM (inactive).
